In paper PMC3735939, “The low levels of eicosapentaenoic acid in rat brain phospholipids are maintained via multiple redundant mechanisms” (Journal of Lipid Research, 2013):

How the values were obtained:
[1] = In vivo kinetics of FA incorporation and turnover in brain phospholipids (intravenous radiotracer infusion, kinetic model); design: species or system rat
Method: Twenty-four hours postsurgery, a second catheter (iv catheter 24 gauge/0.75 inch, Angiocath™; Becton Dickinson) was implanted into the tail vein where rats received either vehicle or 10 mg/kg of MEP. […] The radiotracers were infused for 5 min via the tail vein catheter at a rate of 0.223(1 + e^−19.2t) ml/min (t is infusion time in minutes) ([37]) which achieves a steady-state plasma radioactivity within 1 min ([18], [38]). […] During the 5 min infusion, blood samples were collected from the jugular vein at approximately 0, 0.25, 0.5, 0.75, 1.5, 3, 4, and 5 min while the unanesthetized rat was mobile in the infusion box with food and water. […] After 5 min, the rats were rapidly euthanized by head-focused high-energy microwave irradiation (13.5 kW for 1.6 s; Cober Electronics Inc., Stratford, CT). The radiotracer infusions continued until rats were euthanized. The brain was excised and cut sagittally. Both hemispheres were stored at −80°C for radioactive and biochemical analyses. Plasma was isolated from whole blood via microcentrifugation at 6,200 rpm (2,000 g) for 5 min and stored at −80°C.
The model for in vivo kinetics of brain FAs in rats has been previously described ([17], [18], [21], [23], [25], [37], [41]).
Because the infusion is 5 min, contributions of FA from de novo synthesis and esterified plasma FA are negligible ([18], [20], [23], [41]); thus only contributions from plasma unesterified FAs and acyl-CoA pools were considered in the calculation of λpalmitate, DHA, or EPA .

[2] = cited from earlier work

Row | Compound | FFA rate of turnover ([1]; ChoGpl, MEP) [%/day] | JFA net incorporation rate from brain acyl-CoA ([1]; ChoGpl, MEP) [nmol/g/day] | Jin net incorporation rate from plasma unesterified FA ([1]; ChoGpl, MEP) [nmol/g/day] | FFA rate of turnover ([1]; ChoGpl, Vehicle) [%/day] | JFA net incorporation rate from brain acyl-CoA ([1]; ChoGpl, Vehicle) [nmol/g/day] | Jin net incorporation rate from plasma unesterified FA ([1]; ChoGpl, Vehicle) [nmol/g/day] | FFA rate of turnover ([1]; EtnGpl, MEP) [%/day] | JFA net incorporation rate from brain acyl-CoA ([1]; EtnGpl, MEP) [nmol/g/day] | Jin net incorporation rate from plasma unesterified FA ([1]; EtnGpl, MEP) [nmol/g/day] | FFA rate of turnover ([1]; EtnGpl, Vehicle) [%/day] | JFA net incorporation rate from brain acyl-CoA ([1]; EtnGpl, Vehicle) [nmol/g/day] | Jin net incorporation rate from plasma unesterified FA ([1]; EtnGpl, Vehicle) [nmol/g/day] | FFA rate of turnover ([1]; Total PL, MEP) [%/day] | JFA net incorporation rate from brain acyl-CoA ([1]; Total PL, MEP) [nmol/g/day] | Jin net incorporation rate from plasma unesterified FA ([1]; Total PL, MEP) [nmol/g/day] | FFA rate of turnover ([1]; Total PL, Vehicle) [%/day] | JFA net incorporation rate from brain acyl-CoA ([1]; Total PL, Vehicle) [nmol/g/day] | Jin net incorporation rate from plasma unesterified FA ([1]; Total PL, Vehicle) [nmol/g/day] | further results
1 | CC/C=C\C/C=C\C/C=C\C/C=C\C/C=C\C/C=C\CCC(=O)SCCNC(=O)CCNC(=O)[C@H](O)C(C)(C)COP(=O)(O)OP(=O)(O)OC[C@H]1O[C@@H](n2cnc3c(N)ncnc32)[C@H](O)[C@@H]1OP(=O)(O)O [DHA-CoA] | – | – | – | – | – | – | – | – | – | – | – | – | – | – | – | – | – | – | t1/2 half-life ([1]; Total PL, Vehicle): about 1 day; JFA into brain total phospholipids, fold higher than EPA-CoA ([1]; vehicle injection): 154 fold
2 | CC/C=C\C/C=C\C/C=C\C/C=C\C/C=C\CCCCCC(=O)O [EPA→n-3 DPA] | 178 ± 41 | 6.2 ± 0.91 | 1.4 ± 0.12 | 192 ± 25 | 6.5 ± 0.92 | 0.79 ± 0.15 | 153 ± 44 | 13 ± 3.5 | 3.0 ± 0.43 | 147 ± 30 | 12 ± 2.5 | 1.5 ± 0.36 | 149 ± 35 | 21 ± 3.3 | 5.0 ± 0.49 | 123 ± 34 | 18 ± 2.2 | 2.2 ± 0.44 | FFA rate of turnover ([1]; PtdIns, MEP): 260 ± 113 %/day; JFA net incorporation rate from brain acyl-CoA ([1]; PtdIns, MEP): 1.6 ± 0.77 nmol/g/day; Jin net incorporation rate from plasma unesterified FA ([1]; PtdIns, MEP): 0.39 ± 0.22 nmol/g/day; FFA rate of turnover ([1]; PtdIns, Vehicle): 336 ± 62 %/day; JFA net incorporation rate from brain acyl-CoA ([1]; PtdIns, Vehicle): 2.3 ± 0.1 nmol/g/day; Jin net incorporation rate from plasma unesterified FA ([1]; PtdIns, Vehicle): 0.27 ± 0.045 nmol/g/day; FFA rate of turnover ([1]; PtdSer, MEP): 20 ± 3.6 %/day; JFA net incorporation rate from brain acyl-CoA ([1]; PtdSer, MEP): 1.1 ± 0.11 nmol/g/day; Jin net incorporation rate from plasma unesterified FA ([1]; PtdSer, MEP): 0.25 ± 0.05 nmol/g/day; FFA rate of turnover ([1]; PtdSer, Vehicle): 31 ± 11 %/day; JFA net incorporation rate from brain acyl-CoA ([1]; PtdSer, Vehicle): 1.8 ± 0.45 nmol/g/day; Jin net incorporation rate from plasma unesterified FA ([1]; PtdSer, Vehicle): 0.21 ± 0.068 nmol/g/day
3 | CC/C=C\C/C=C\C/C=C\C/C=C\C/C=C\C/C=C\CCC(=O)O [EPA→DHA] | 0.070 ± 0.01 | 0.98 ± 0.14 | 0.23 ± 0.02 | 0.30 ± 0.035 | 3.8 ± 0.54 | 0.46 ± 0.089 | 0.054 ± 0.017 | 3.1 ± 0.81 | 0.71 ± 0.1 | 0.13 ± 0.023 | 7.6 ± 1.5 | 0.92 ± 0.22 | 0.022 ± 0.0035 | 1.9 ± 0.3 | 0.45 ± 0.044 | 0.091 ± 0.0089 | 7.9 ± 0.97 | 1.0 ± 0.19 | –
4 | CCCCC/C=C\C/C=C\C/C=C\C/C=C\CCCC(=O)O [ARA, arachidonic acid] | – | – | – | – | – | – | – | – | – | – | – | – | – | – | – | – | – | – | rate of loss from brain phospholipids [2]: 2 % per day
